Source: patent US8338426B2, “Piperazinyl derivatives useful as modulators of the neuropeptide Y2 receptor” (Janssen Pharmaceutica NV, priority 2007, dated 2012)
Like-named read-outs stand apart in the source and are kept apart here.

What was measured:
Y5 receptor subtype = target: T1, Y5 receptor subtype (Homo sapiens, UniProt Q15761); assay: [125I]PYY binding in HEK-293 cells expressing the Y5 receptor subtype; conditions: concentrations up to 10; HEK-293 cells expressing Y5
T1 construct: expressed in transfected cells; host or cells: HEK-293 cells
T1 sequence (Q15761 1-445): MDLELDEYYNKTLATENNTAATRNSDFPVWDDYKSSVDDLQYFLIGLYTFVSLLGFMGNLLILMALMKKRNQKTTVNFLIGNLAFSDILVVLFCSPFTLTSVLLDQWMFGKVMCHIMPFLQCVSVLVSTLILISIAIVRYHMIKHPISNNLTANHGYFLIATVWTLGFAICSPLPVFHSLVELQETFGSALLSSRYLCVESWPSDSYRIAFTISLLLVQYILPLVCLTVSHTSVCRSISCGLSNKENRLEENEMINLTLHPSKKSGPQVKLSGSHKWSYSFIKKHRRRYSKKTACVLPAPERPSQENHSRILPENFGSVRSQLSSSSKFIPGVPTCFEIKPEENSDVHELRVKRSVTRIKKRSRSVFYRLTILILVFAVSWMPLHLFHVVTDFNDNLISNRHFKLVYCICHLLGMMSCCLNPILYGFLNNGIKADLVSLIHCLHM
Experimental: The selectivity of the compound of formula (A) was further evaluated in a large variety of ion-channels, transporters and receptor-binding assays including the Y1 receptor subtype. These assays were performed by CEREP (Celles L'Evescault, France; www.cere.com<http//www.cerea.com>). Selectivity vs the Y5 receptor subtype was evaluated as described in Bonaventure, P., D. Nepomuceno, C. Mazur, B. Lord, D. A. Rudolph, J. A. Jablonowski, N. I. Carruthers and T. W. Lovenberg, J Pharmacol Exp Ther. 2004, 308, 1130.

[1] = Pharmacokinetic study in dogs; format: in vivo, male Beagle dog; conditions: dog; for Vd: iv, 1 mg/kg
Experimental: Male Beagle Canines 11-15 kilograms in body weight were used. Three animals received a bolus oral dose of the compound via an oral gavage at a dose of 5 mg/kg. Three animals received a bolus intravenous dose of the compound at a dose of 1 mg/kg in the right cephalic vein. Blood sampling of the cephalic or jugular veins followed dosing over a time course. Blood samples consisted of 4-5 mL samples taken from the vein into heparinized blood collection tubes containing Li Heparin. These blood samples were then centrifuged. The plasma was retained and kept frozen in a −40° C. freezer until processed for analysis. The time course for sampling was as follows: 0.25, 0.5, 1, 2, 4, 8, and 24 hours for oral administration and 0.08, 0.25, 0.5, 1, 2, 4, 8, and 24 hours for intravenous administration. These samples were analyzed by LC-MS/MS. The LC-MS/MS data was analyzed using a non-compartmental model with the software package WinNonlin Version 4.0.1 (Pharsight, Palo Alto, Calif.). All figures plasma level versus time figures were created using GraphPad Prism 4 (San Diego, Calif.).
The compound of formula (A) was formulated in 20% hydroxypropyl-β-cyclodextrine. Oral and intravenous pharmacokinetic parameters for the compound of formula (A) were determined in male Beagles with results as shown in FIG. 3 and Table 3 below.

[2] = tested on: ethanol-induced hyperactivity; assay: Ethanol-induced hyperactivity (locomotor activity) in c57bl6/j mice; format: in vivo; conditions: 10 mg/kg i.p.
Excerpt: C57bl6/j mice readily self-administer ethanol and these mice are sensitive to the stimulant effects of alcohol. NPY immunoreactivity is reduced in these mice. In addition, mice lacking NPY drink more ethanol than wild type mice; whereas, mice over-expressing NPY have reduced preference for ethanol. Experiments were designed to test the hypothesis that selective blockade of Y2 receptors by the compound of formula (A) decreases ethanol stimulant effects presumable by enhancing NPY function in the brain.
Locomotor activity was measured with a Hamilton Kinder motor monitor infrared beam apparatus equipped with a SmartFrame cage rack throughout which basic movements were recorded. Experiments assessed the effects of the compound of formula (A) on ethanol-induced hyperactivity in 8-10-week old c57bl6/j mice and were conducted using a between subject design. Vehicle (10 ml/kg, i.p.) or the compound of formula (A) (10 mg/kg, i.p.) was administered 15 min prior to the beginning of the session. Thereafter, animals received an acute injection of either vehicle (10 ml/kg, i.p.) or ethanol (1 g/kg, i.p), then they were immediately placed in the apparatus and locomotor activity was evaluated for 15 min. Data were analyzed with two-way repeated ANOVA using Graph Pad.

[3] = male, beagle, plasma, IV 1 mg/kg
[4] = male, beagle, plasma, PO 5 mg/kg

- Lambda z ([1]; IV 1 mg/kg): 1.47 h⁻¹
- Lambda z ([1]; PO 5 mg/kg): 0.71 h⁻¹
- Vd ([1]; male, beagle, plasma, IV 1 mg/kg, read-out: VSS): 0.57 L/kg
- Vd ([1]; male, beagle, plasma, IV 1 mg/kg, read-out: Vz): 0.64 L/kg
- AUC(0-inf) [1, 3]: 1890 nM·h
- AUC(0-t) [1, 3]: 890 nM·h
- C0 [1, 3]: 6.24 µM
- MRT inf [1, 3]: 36.6 min
- clearance [1, 3]: 0.948 L/h/kg
- half-life [1, 3]: 28.2 min
- AUC(0-inf) [1, 4]: 2790 nM·h
- AUC(0-t) [1, 4]: 2730 nM·h
- Cmax [1, 4]: 1.55 µM
- MRT inf [1, 4]: 103 min
- Tmax [1, 4]: 49.8 min
- half-life [1, 4]: 59.4 min
SMILES: CCN(CC)C(=O)C(c1ccccc1)N1CCN(c2ccc(NC(=O)c3ccccc3-c3cccnc3)cc2F)CC1 (racemic) [Cmpd (A), N-{4-[4-(Diethylcarbamoyl-phenyl-methyl)-piperazin-1-yl]-3-fluoro-phenyl}-2-pyridin-3-yl-benzamide]
- competition for specific [125I]PYY receptor binding sites, Y5 (Y5 receptor subtype): failed to compete for significant amounts
- effect on ethanol-induced hyperactivity ([2]; 15 min before ethanol 1 g/kg i.p.): significantly reduced ethanol hyperactivity
- effect on locomotor activity by itself ([2]; no ethanol): did not change locomotor activity by itself
